Measured values from PubChem BioAssay (NCI).
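Test compounds were applied to cells in 96-well plates for 48 hours at 5 doses. Here, GI50 denotes the concentration required for 50% inhibition of growth. TGI: total growth inhibition.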

What was measured:
Experiment in all cases: growth of human tumour cells (NCI), 48 h
[1] = test system: 786-0 renal
[2] = test system: A498 renal
[3] = test system: A549 NSCLC
[4] = test system: ACHN renal
[5] = test system: BT-549 breast
[6] = test system: CAKI-1 renal
[7] = test system: CCRF-CEM leukemia
[8] = test system: COLO 205 colon
[9] = test system: DU-145 prostate
[10] = test system: EKVX NSCLC
[11] = test system: HCC-2998 colon
[12] = test system: HCT-116 colon
[13] = test system: HCT-15 colon
[14] = test system: HL-60(TB) leukemia
[15] = test system: HOP-62 NSCLC
[16] = test system: HOP-92 NSCLC
[17] = test system: HS 578T breast
[18] = test system: HT29 colon
[19] = test system: IGROV1 ovarian
[20] = test system: K-562 leukemia
[21] = test system: KM12 colon
[22] = test system: M14 melanoma
[23] = test system: MALME-3M melanoma
[24] = test system: MDA-MB-435
[25] = test system: MOLT-4 leukemia
[26] = test system: NCI-H460 lung
[27] = test system: NCI-H522 lung
[28] = test system: NCI/ADR-RES ovarian
[29] = test system: OVCAR-3 ovarian
[30] = test system: OVCAR-4 ovarian
[31] = test system: OVCAR-5 ovarian
[32] = test system: OVCAR-8 ovarian
[33] = test system: PC-3 prostate
[34] = test system: RPMI-8226 leukemia
[35] = test system: RXF 393 renal
[36] = test system: SF-295 CNS
[37] = test system: SF-539 CNS
[38] = test system: SK-MEL-2 melanoma
[39] = test system: SK-MEL-28 melanoma
[40] = test system: SK-MEL-5 melanoma
[41] = test system: SK-OV-3 ovarian
[42] = test system: SN12C renal
[43] = test system: SNB-75 CNS
[44] = test system: SR leukemia
[45] = test system: SW-620 colon
[46] = test system: TK-10 renal
[47] = test system: U251 CNS
[48] = test system: UACC-257 melanoma
[49] = test system: UACC-62 melanoma
[50] = test system: UO-31 renal

CNC(=O)c1cc(Oc2ccc3nc(NC(=O)c4ccc(CN5CCCN(C)CC5)c(C(F)(F)F)c4)sc3c2)ccn1 showed a GI50 [1] of 1.25 µM, a TGI [1] of 2.55 µM and a GI50 [2] of 1.96 µM. It also gave a TGI [2] of 3.38 µM, a GI50 [3] of 1.64 µM and a TGI [3] of 3.08 µM. For the same compound, the GI50 [4] was 1.72 µM, the TGI [4] was 3.09 µM and the GI50 [5] was 1.68 µM. The TGI [5] was 3.14 µM, the GI50 [6] was 1.52 µM and the TGI [6] was 2.9 µM. The GI50 [7] was 1.8 µM, the TGI [7] was 4.06 µM and the GI50 [8] was 1.39 µM. It also gave a TGI [8] of 2.78 µM, a GI50 [9] of 1.7 µM and a TGI [9] of 3.28 µM. It also gave a GI50 [10] of 1.7 µM, a TGI [10] of 3.14 µM and a GI50 [11] of 1.88 µM. The TGI [11] was 3.36 µM, the GI50 [12] was 1.16 µM and the TGI [12] was 2.4 µM. It also gave a GI50 [13] of 0.959 µM, a TGI [13] of 2.24 µM and a GI50 [14] of 1.35 µM. For the same compound, the TGI [14] was 2.94 µM, the GI50 [15] was 1.61 µM and the TGI [15] was 3.08 µM. For the same compound, the GI50 [16] was 1.36 µM, the TGI [16] was 3 µM and the GI50 [17] was 1.48 µM. For the same compound, the TGI [17] was 3.8 µM, the GI50 [18] was 0.387 µM and the TGI [18] was 1.48 µM. It also gave a GI50 [19] of 1.74 µM, a TGI [19] of 3.4 µM and a GI50 [20] of 0.331 µM. For the same compound, the TGI [20] was 1.46 µM, the GI50 [21] was 1.68 µM and the TGI [21] was 3.21 µM. The GI50 [22] was 1.22 µM, the TGI [22] was 2.65 µM and the GI50 [23] was 1.4 µM. It also gave a TGI [23] of 2.84 µM, a GI50 [24] of 1.48 µM and a TGI [24] of 2.88 µM. It also gave a GI50 [25] of 1.46 µM, a TGI [25] of 3.1 µM and a GI50 [26] of 1.65 µM. The TGI [26] was 3.14 µM, the GI50 [27] was 1.74 µM and the TGI [27] was 3.31 µM. The GI50 [28] was 1.68 µM, the TGI [28] was 3.53 µM and the GI50 [29] was 1.85 µM. The TGI [29] was 3.41 µM, the GI50 [30] was 1.6 µM and the TGI [30] was 3.11 µM. For the same compound, the GI50 [31] was 1.64 µM, the TGI [31] was 3.07 µM and the GI50 [32] was 1.67 µM. For the same compound, the TGI [32] was 3.18 µM, the GI50 [33] was 1.48 µM and the TGI [33] was 3.24 µM. It also gave a GI50 [34] of 0.694 µM, a TGI [34] of 2.6 µM and a GI50 [35] of 1.07 µM. The TGI [35] was 2.27 µM, the GI50 [36] was 1.76 µM and the TGI [36] was 3.22 µM. For the same compound, the GI50 [37] was 1.1 µM, the TGI [37] was 2.32 µM and the GI50 [38] was 1.78 µM. The TGI [38] was 3.38 µM, the GI50 [39] was 1.3 µM and the TGI [39] was 2.64 µM. For the same compound, the GI50 [40] was 1.59 µM, the TGI [40] was 2.98 µM and the GI50 [41] was 1.76 µM. For the same compound, the TGI [41] was 3.27 µM, the GI50 [42] was 1.73 µM and the TGI [42] was 3.3 µM. It also gave a GI50 [43] of 1.22 µM, a TGI [43] of 2.48 µM and a GI50 [44] of 0.502 µM. For the same compound, the TGI [44] was 2.15 µM, the GI50 [45] was 1.7 µM and the TGI [45] was 3.19 µM. It also gave a GI50 [46] of 2.4 µM, a TGI [46] of 4.03 µM and a GI50 [47] of 1.44 µM. The TGI [47] was 2.8 µM, the GI50 [48] was 1.57 µM and the TGI [48] was 2.95 µM. The GI50 [49] was 1.69 µM, the TGI [49] was 3.32 µM and the GI50 [50] was 1.35 µM. It also gave a TGI [50] of 2.71 µM.
